Values quoted from earlier work as cited in PMC5736175, “Nicotinic alpha 7 receptor agonists EVP-6124 and BMS-933043, attenuate scopolamine-induced deficits in visuo-spatial paired associates learning” (PLoS ONE, 2017).

What was measured:
human nAChR α7 = test system: human nAChR α7; design: method as in PMID 27467081; conditions: intrinsic activity; HEK293 cells expressing human nAChR α7; cited from earlier work
5-HT3 receptor = conditions: cited from earlier work

Q: With `c1cn(-c2cc(NC3=NC[C@@]4(CN5CCC4CC5)O3)ncn2)cn1` [BMS-933043, (2R)-N-(6-(1H-imidazol-1-yl)-4-pyrimidinyl)-4'H-spiro[4-azabicyclo[2.2.2]octane-2,5'-[1, 3]oxazol]-2'-amine] as the molecule, how does the “net charge relative to acetylcholine” value (human nAChR α7) read?
A: The value was 78%.

Q: What about the “peak current response relative to acetylcholine” value (human nAChR α7) of the same molecule?
A: Its value is 24%.

Q: What about the “selectivity for nAChR α7 versus the 5-HT3 receptor” value (5-HT3 receptor) of the same molecule?
A: The value was “highly selective”.
